Assay: Identification of Columbia Blue in release media by LC/MS (stability)
Type: physicochemical
Settings: water at room temperature and PBS pH 7.4 at 37° C., 16 week release experiments
Method: The concentration of Columbia Blue was determined using Liquid Chromatography/Mass Spectroscopy (LC/MS) (Agilent Technologies 6130 Quadrupole LC/MS), and the Columbia Blue was identified using mass spectroscopy. The column used was a Restek Ultra C18, 5 μm, 250×4.6 mm. The mobile phase consisted of 60% acetonitrile and 40% water at a flow rate of 1.0 ml/min. The concentration was determined using UV detection at a wavelength of 374 nm.
A model pesticide, Columbia Blue, was chosen following Briggs's “rule of 3” (Briggs, G. G., Uptake of Agrochemicals & Pharmaceuticals ‘Predicting uptake & movement of agrochemicals from physical properties’, in SCI Meeting. 1997) and Clarke-Delaney's “guide of 2” (Clarke, E. D. and J. S. Delaney, Designing Drugs and Crop Protectants: Processes, Problems and Solutions, ed. D. L. M. Ford, J. Dearden, H. V. de Waterbeemd. 2003: Blackwell Publishing, Malden). During the release measurements, Columbia Blue was identified by the LC/MS. The retention time of Columbia Blue of HPLC spectrum remained unchanged at 9.8 minutes.

- degradation of Columbia Blue in the release media: did not degrade
Substance: Columbia Blue

From US9861096B2, “Biodegradable chemical delivery system” (Cornell University, priority 2008, dated 2018)
